Measurements from patent US20110144331A1, “Cinnoline Compounds for the Treatment of Anxiety, Cognitive and Mood Disorders” (AstraZeneca AB, priority 2005, published 2011).

How the values were obtained:
[1] = molecular target: T1, human α1β2γ2 GABAA receptor (Homo sapiens, UniProt P14867+P18507); assay: Two-electrode voltage-clamp in Xenopus oocytes, potentiation of GABA EC10 current, GABAA1; type: cell-based; details: percentage potentiation of GABA EC10 current divided by that of diazepam control
T1 construct: expressed in transfected cells; host or cells: Xenopus laevis oocytes injected with capped cRNA
T1 sequence (P14867 28-456): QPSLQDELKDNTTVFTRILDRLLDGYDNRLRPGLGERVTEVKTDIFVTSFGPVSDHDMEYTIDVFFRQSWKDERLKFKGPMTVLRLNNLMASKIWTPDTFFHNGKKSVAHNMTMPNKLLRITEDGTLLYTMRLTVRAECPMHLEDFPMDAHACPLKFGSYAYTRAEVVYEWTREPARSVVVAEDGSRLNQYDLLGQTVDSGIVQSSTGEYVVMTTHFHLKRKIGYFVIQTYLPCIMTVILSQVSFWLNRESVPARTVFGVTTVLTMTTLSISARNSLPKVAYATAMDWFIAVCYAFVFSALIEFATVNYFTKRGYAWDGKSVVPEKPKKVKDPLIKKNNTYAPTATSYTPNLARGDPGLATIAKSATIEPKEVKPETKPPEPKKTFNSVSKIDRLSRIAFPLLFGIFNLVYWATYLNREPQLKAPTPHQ
T1 sequence (P47870 25-512 partner limits assumed): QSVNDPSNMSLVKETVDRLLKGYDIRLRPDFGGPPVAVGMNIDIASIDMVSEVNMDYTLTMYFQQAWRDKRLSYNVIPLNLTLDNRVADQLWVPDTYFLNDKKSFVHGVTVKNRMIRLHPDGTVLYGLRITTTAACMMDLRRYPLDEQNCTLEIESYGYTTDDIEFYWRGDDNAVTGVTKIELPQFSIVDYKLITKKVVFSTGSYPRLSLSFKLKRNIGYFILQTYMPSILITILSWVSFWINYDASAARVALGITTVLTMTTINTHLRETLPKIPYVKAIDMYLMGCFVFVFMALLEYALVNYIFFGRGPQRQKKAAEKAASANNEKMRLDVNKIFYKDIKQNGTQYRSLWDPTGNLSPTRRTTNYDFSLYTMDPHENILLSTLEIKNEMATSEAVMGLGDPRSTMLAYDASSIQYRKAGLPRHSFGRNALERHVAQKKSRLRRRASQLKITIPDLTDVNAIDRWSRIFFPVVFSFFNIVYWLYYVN
T1 sequence (P18507 40-475): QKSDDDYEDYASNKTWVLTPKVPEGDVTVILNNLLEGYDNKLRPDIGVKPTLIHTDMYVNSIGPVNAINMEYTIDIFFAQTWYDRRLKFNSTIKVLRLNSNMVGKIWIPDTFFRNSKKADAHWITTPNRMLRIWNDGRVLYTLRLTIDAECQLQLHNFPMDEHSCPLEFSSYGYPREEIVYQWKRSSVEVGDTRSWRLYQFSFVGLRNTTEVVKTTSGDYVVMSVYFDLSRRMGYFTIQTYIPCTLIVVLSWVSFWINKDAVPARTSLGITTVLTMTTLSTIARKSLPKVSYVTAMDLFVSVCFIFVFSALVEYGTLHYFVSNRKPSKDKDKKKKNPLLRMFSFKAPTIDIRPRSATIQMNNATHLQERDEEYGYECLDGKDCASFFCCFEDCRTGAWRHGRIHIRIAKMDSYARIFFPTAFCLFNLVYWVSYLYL
Procedure: (§1) GABAA receptors were heterologously expressed in Xenopus oocytes by injecting cRNA corresponding to human α1, α2, α3, α5, β2, β3 and γ2 subunits of the GABAA receptor genes. The specific subunit combinations (subtypes) were as follows: α1β2γ2, α2β3γ2, α3β3γ2, and α5β3γ2. The EC10 of GABA was approximated for each cell. Stability of GABA-mediated (EC10) current was established. Modulatory effect of test compound was determined and compared across subtypes. […] Thus, the assay can characterize modulatory effects and determine subtype selectivity of test compounds on major subtypes of GABAA receptors.
(§2) Surgically removed ovarian lobes were teased out in OR2 solution (82 NaCl, 2.5 KCl, 5 HEPES, 1.5 NaH2PO4, 1 MgCl2, 0.1 EDTA, in mM, pH 7.4). The oocytes were defolliculated by incubation in 25 mL OR2 containing 0.2% collagenase 1A (SIGMA) two times for about 60 minutes on a platform shaker and stored in Leibovitz's L-15 medium. Oocytes were injected the following day in 0.5× Leibovitz's L-15 medium containing […] gentamycin, 10 units/ml penicillin, and […] streptomycin.
(§3) Capped cRNAs from the linearized vectors containing human α1, β2 and γ2 subunits of the GABAA receptor genes were mixed in ratio of 1:1:30. Oocytes were injected with 25-50 nL of mixed RNA with an appx molar ratio for α1, β2, and γ2 as 1:1:10. Oocyte recordings were done 2-10 days after injection. The same methods apply to subtypes derived from α2β2γ2, α3β3γ2, and α5β3γ2, except for 1:1:1 ratio was used for α, β, and γ subunits.
(§4) All measurements were done in a medium containing ND-96 (96 NaCl, 2 KCl, 1.8 CaCl2.2H2O, 1 MgCl2.6H2O, 5 HEPES, in mM, pH 7.5). Two-electrode voltage-clamp recording was carried out using OpusXpress amplifier (Axon Instruments, Foster City, Calif.), which allows simultaneous recording from 8 oocytes. Oocytes were impaled with two electrodes of 1-2 MΩ tip resistance when filled with 3M KCl. Recordings were begun when membrane potential became stable at potentials negative to −50-−60 mV. Membrane potential was held at −60 mV. […] The concentration of GABA corresponded to the EC10 value calculated for each oocyte. The modulator pulses started 30 s before the GABA pulse so as to allow preincubation with the modulator. A set of 3 pulses with just GABA without modulator was given prior to the modulator-containing pulses to define the baseline GABA response. Two oocytes per each experiment were dedicated to observe the effect of diazepam on GABA response to ensure the presence of γ2 subunit in the GABAA pentameric complex, which imparts diazepam sensitivity to the complex.
(§5) Current amplitude (i) was measured from baseline to peak using Clampfit (Axon Inst., Foster City, Calif.). Potentiation was calculated as percent change from the baseline GABA current flux 100×(imod/icontrol)−1) where imod=current mediated by modulator+GABA and icontrol=current mediated by GABA alone. […] Similarly, a value of −50% potentiation means the presence of modulator caused a 50% decrease in the control current. Various other data shown here were fitted and plotted using GraphPad Prism (GraphPad Software, Inc. San Diego, Calif.). The percentage potentiation was converted to relative potentiation by dividing it with percentage potentiation value obtained from the same assay with diazepam as a control.

[2] = molecular target: T2, human α2β3γ2 GABAA receptor (Homo sapiens, UniProt P18507+P47869); assay: Two-electrode voltage-clamp in Xenopus oocytes, potentiation of GABA EC10 current, GABAA2; type: cell-based; details: percentage potentiation of GABA EC10 current divided by that of diazepam control
T2 construct: expressed in transfected cells; host or cells: Xenopus laevis oocytes injected with capped cRNA (α:β:γ 1:1:1)
T2 sequence (P47869 29-451): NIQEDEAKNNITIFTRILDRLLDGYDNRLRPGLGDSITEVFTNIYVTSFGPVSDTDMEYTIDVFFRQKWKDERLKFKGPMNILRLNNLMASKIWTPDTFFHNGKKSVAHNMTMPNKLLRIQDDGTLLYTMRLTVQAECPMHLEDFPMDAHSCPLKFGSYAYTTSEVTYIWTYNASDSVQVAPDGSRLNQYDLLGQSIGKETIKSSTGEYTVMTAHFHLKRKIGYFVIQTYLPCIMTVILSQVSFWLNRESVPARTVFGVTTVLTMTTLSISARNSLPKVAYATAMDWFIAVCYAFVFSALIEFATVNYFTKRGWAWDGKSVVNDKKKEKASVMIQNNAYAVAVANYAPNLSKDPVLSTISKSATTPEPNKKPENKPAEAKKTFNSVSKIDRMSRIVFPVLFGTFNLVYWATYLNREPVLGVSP
T2 sequence (P18507 40-475): as the sequence (P18507 40-475) above
T2 sequence (P28472 26-473 partner): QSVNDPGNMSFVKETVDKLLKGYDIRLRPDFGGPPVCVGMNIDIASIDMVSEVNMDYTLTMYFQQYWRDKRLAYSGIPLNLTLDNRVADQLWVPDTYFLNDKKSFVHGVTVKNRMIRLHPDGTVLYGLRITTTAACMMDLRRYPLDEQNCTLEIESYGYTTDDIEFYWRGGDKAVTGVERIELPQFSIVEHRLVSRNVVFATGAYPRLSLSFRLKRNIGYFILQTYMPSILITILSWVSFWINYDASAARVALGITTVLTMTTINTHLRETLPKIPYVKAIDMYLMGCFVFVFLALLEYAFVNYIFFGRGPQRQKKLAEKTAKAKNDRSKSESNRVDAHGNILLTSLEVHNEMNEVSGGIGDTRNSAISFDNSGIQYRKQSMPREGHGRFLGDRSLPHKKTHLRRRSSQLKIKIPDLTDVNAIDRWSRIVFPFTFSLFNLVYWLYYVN
Procedure: as §1, §2, §3, §4, §5

SMILES | Relative Potentiation for GABAA1 [1] | Relative Potentiation for GABAA2 [2]
CCCNC(=O)c1nnc2c(-c3ccccc3C(F)(F)F)cccc2c1N | 0.12 | 0.063
COc1cccc(F)c1-c1cccc2c(N)c(C(=O)NC3CCC3)nnc12 | 0.0017 | 0.12
CCCNC(=O)c1nnc2c(-c3cccc(F)c3F)cccc2c1N | −0.11 | 0.17
CCCNC(=O)c1nnc2c(-c3ccc(OC)nc3OC)cccc2c1N | 0.17 | 0.25
CCCNC(=O)c1nnc2c(-c3ccc(F)cc3OC)c(F)ccc2c1N | −0.028 | 0.18
CCCNC(=O)c1nnc2c(-c3ccc(OC)cc3F)c(F)ccc2c1N | 0.053 | 0.18
CCCNC(=O)c1nnc2c(-c3cccc(N(C)C)c3)cccc2c1N | 0.17 | 0.19
CCCNC(=O)c1nnc2c(-c3cc(F)ccc3C)cccc2c1N | 0.02 | 0.22
CCCNC(=O)c1nnc2c(-c3cc(F)cc(F)c3OC)c(F)ccc2c1N | 0.1 | 0.14
CCCNC(=O)c1nnc2c(-c3ccccc3)c(Cl)ccc2c1N | 0.25 | 0.16
CCCNC(=O)c1nnc2c(-c3ccc(OC)c(OC)c3OC)cccc2c1N | 0.47 | 0.33
CCCNC(=O)c1nnc2c(-c3cc(C)nn3C)cccc2c1N | 0.23 | 0.18
CCCNC(=O)c1nnc2c(-c3cc(OC)ccc3C)cccc2c1N | 0.1 | 0.22
CCCNC(=O)c1nnc2c(-c3cnn(C)c3)cccc2c1N | −0.16 | 0.16
CCCNC(=O)c1nnc2c(-c3ccc(Cl)cc3)c(F)ccc2c1N | 0.02 | 0.19
CCCNC(=O)c1nnc2c(-c3ccc(OC)nc3)cccc2c1N | −0.08 | 0.16
CCCNC(=O)c1nnc2c(-c3cccc(S(C)(=O)=O)c3)cccc2c1N | 0.34 | 0.26
CCCNC(=O)c1nnc2c(-c3cc(F)ccc3OC)cccc2c1N | 0.026 | 0.4
CCCNC(=O)c1nnc2c(-c3cccc(F)c3OC)cccc2c1N | 0.11 | 0.11
CCCNC(=O)c1nnc2c(-c3cc(C)ccc3C)c(Cl)ccc2c1N | 0.24 | 0.22
CCCNC(=O)c1nnc2c(-c3cccc(Cl)c3)cccc2c1N | 0.18 | 0.53
CCCNC(=O)c1nnc2c(-c3cnc4ccccc4c3)cccc2c1N | −0.15 | 0.11
CCNC(=O)c1nnc2c(-c3cnc(OC)nc3OC)cccc2c1N | 0.005 | 0.35
CCCNC(=O)c1nnc2c(-c3ccc(OC)cc3)cccc2c1N | −0.11 | 0.06
CCCNC(=O)c1nnc2c(-c3ccc(C)c(C)c3)cccc2c1N | 0.23 | 0.35
CCCNC(=O)c1nnc2c(-c3ccc(OC)c(C)c3)cccc2c1N | 0.21 | 0.27

SMILES | Relative Potentiation for GABAA1 [1] | Relative Potentiation for GABAA2 [2]
CCCNC(=O)c1nnc2c(-c3ccsc3)cccc2c1N | −0.26 | 0.038
Nc1c(C(=O)NCC2CC2)nnc2c(-c3ccccc3)cccc12 | 0.11 | 0.24
CCCNC(=O)c1nnc2c(-c3ccccn3)cccc2c1N | 0.027 | −0.032
CCCNC(=O)c1nnc2c(-c3cnc(OC)nc3)cccc2c1N | −0.066 | 0.11
CCCNC(=O)c1nnc2c(-c3ccc(F)c(F)c3)cccc2c1N | −0.14 | 0.12
CCCNC(=O)c1nnc2c(-c3ccc(OC)c(F)c3)cccc2c1N | 0.03 | 0.19
CCCNC(=O)c1nnc2c(-c3cnccn3)cccc2c1N | −0.067 | −0.01
CCCNC(=O)c1nnc2c(-c3cc(Cl)cc(Cl)c3)cccc2c1N | 0.28 | 0.48
CCCNC(=O)c1nnc2c(-c3cnc(OC)c(F)c3)cccc2c1N | −0.012 | 0.14
CCCNC(=O)c1nnc2c(-c3cnc(OC)c(Cl)c3)cccc2c1N | 0.086 | 0.04
CCCNC(=O)c1nnc2c(-c3ccc(N(C)C)cc3)cccc2c1N | 0.07 | 0.18
CCCNC(=O)c1nnc2c(-c3ccc(C)cc3)cccc2c1N | 0.013 | 0.11
CCCNC(=O)c1nnc2c(-c3ccc4[nH]ccc4c3)cccc2c1N | 0.15 | 0.16
CNC(=O)c1nnc2c(-c3cc(C)ccc3OC)cccc2c1N | 0.19 | 0.43
CCCNC(=O)c1nnc2c(-c3cc(C)c(OC)c(C)c3)cccc2c1N | 0.79 | 0.32
CCCNC(=O)c1nnc2c(-c3cc(F)ccc3F)c(F)ccc2c1N | 0.013 | 0.098
CCCNC(=O)c1nnc2c(-c3cccc(OC(F)(F)F)c3)cccc2c1N | 0.87 | 0.48
CCCNC(=O)c1nnc2c(-c3cccc(C(=O)O)c3)cccc2c1N | −0.038 | 0.08
CCCNC(=O)c1nnc2c(-c3cc(OC)c(OC)c(OC)c3)cccc2c1N | 0.4 | 0.67
CCCNC(=O)c1nnc2c(-c3ccccc3)c(OC)ccc2c1N | 0.12 | 0.08
CCCNC(=O)c1nnc2c(-c3ccc(OC(F)(F)F)cc3)cccc2c1N | 0.32 | 0.04
CCCNC(=O)c1nnc2c(-c3cc(C(F)(F)F)cc(C(F)(F)F)c3)cccc2c1N | 0.44 | 0.13
CCNC(=O)c1nnc2c(-c3cnc(OC)c(F)c3)cccc2c1N | −0.010 | 0.223
COc1ccc(F)cc1-c1cccc2c(N)c(C(=O)NC3CC3)nnc12 | −0.028 | 0.357
COc1ccncc1-c1cccc2c(N)c(C(=O)NC3CC3)nnc12 | 0.077 | 0.337
COc1ncccc1-c1cccc2c(N)c(C(=O)NC3CC3)nnc12 | −0.054 | 0.247
